We go through 1 compound from PMC7567334 (Environmental Health Perspectives, 2020).

In series [1] the test system is Estrogen receptor-α. The conditions noted are these: cited from earlier work.
The subject of series [2] is recombinant AR. The conditions noted are these: ref Chen et al. 2008; cited from earlier work.
Series [3] deals with T1, firefly luciferase (Photinus pyralis, UniProt P08659).
T1 construct: Only implied by 'CP' in the vector name, from my own knowledge; expressed in transfected cells; host or cells: GH3.TRE-Luc cells induced with 0.25 nM T3, lysate
In words: Luciferase inhibition assay in GH3.TRE-Luc cell lysates. The format is biochemical. The conditions noted are these: cell lysate, read-out: inhibition of firefly luciferase luminescence signal. As to the method: Serial dilutions for each treatment were prepared in the cell lysate and incubated at room temperature for 30 min.

For series [4], the target named is T2, human (h) ERα (Homo sapiens, UniProt P03372).
T2 sequence (P03372 1-595): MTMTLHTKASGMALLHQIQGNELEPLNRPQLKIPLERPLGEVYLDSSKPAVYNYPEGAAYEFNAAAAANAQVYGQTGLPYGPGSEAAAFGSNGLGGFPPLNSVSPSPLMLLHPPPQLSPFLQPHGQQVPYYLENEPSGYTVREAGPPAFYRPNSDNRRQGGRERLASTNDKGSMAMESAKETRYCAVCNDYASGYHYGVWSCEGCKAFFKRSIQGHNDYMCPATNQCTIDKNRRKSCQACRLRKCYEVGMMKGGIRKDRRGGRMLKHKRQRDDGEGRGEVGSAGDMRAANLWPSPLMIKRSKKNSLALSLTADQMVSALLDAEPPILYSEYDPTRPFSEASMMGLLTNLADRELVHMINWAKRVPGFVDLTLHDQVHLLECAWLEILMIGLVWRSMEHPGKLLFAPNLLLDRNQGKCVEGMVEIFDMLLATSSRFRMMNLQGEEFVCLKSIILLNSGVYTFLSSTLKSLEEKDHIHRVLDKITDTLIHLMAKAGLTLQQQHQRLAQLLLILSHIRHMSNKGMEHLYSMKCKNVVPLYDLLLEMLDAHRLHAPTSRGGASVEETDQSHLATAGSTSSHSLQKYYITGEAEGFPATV
Briefly: hERα-HeLa-9903 transactivation assay, agonist setup. The series is classed as cell-based. Also on record: host or cells: hERα-HeLa-9903 (HeLa derived). The conditions noted are these: for higher ERα RTA than vehicle control: vs 0.1% DMSO.

The test system of series [5] is AR-EcoScreen cells. Briefly: Cell viability (resazurin) in AR-EcoScreen cells. The conditions noted are these: agonist assay. (Resazurin is reduced to fluorescent resorufin, in cell work by metabolically active cells.)
[6] abbreviates: BG1-ERE cells, ref Ahn et al. 2008.

One may read the inhibition as the drop in the measured response relative to a control, in per cent.

T1 sequence (P08659 whole entry): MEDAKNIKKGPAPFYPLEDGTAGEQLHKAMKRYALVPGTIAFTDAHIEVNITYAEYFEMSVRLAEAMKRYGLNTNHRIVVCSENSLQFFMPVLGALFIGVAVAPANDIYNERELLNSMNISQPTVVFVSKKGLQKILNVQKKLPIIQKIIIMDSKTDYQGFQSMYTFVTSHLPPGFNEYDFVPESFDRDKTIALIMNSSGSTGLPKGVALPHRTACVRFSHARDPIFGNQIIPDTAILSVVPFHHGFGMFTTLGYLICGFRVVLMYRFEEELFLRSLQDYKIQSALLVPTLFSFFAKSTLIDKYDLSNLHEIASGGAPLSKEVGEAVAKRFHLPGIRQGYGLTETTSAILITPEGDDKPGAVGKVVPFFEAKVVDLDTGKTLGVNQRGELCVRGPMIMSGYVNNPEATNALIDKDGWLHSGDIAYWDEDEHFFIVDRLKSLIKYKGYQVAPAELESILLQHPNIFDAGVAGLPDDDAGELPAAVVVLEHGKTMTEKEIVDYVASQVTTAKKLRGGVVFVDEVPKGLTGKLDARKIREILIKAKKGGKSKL

On to `O=C(Nc1ccc(Cl)cc1)Nc1ccc(Cl)c(Cl)c1` [Triclocarban, 1-(4-Chlorophenyl)-3-(3,4-dichlorophenyl) urea], for which, in series [1] (setting [6]), the “effect on ER with β-estradiol” value is “Enhancer of β-estradiol activity in BG1-ERE cells ([Ahn et al. 2008])” and the “effect on ER, compound alone” value was “Agonist in BG1-ERE cells ([Ahn et al. 2008])”. In series [1] (hERα-HeLa-9903 cells, ref Tarnow et al. 2013), the “effect on ERα” value is “Enhancer of β-estradiol activity in hERα-HeLa-9903 cells ([Tarnow et al. 2013])”. Also, in series [2], the “binding to recombinant AR” value was “Negative for recombinant AR ([Chen et al. 2008])”. Moreover, the inhibition at 50 µM in series [3] amounted to 46.7%. Also, the “higher ERα RTA than vehicle control” value in series [4] (1 μM) was found to be 53%. Further, in series [4] (5 μM), the “higher ERα RTA than vehicle control” value is 58%. Besides, in series [4] (hERα-HeLa-9903), the “ERα agonist activity, call” value is “Agonist” and the “concentration with ERα agonist activity” value was 1 to 5 µM. This compound also showed a highest noncytotoxic concentration in series [5] of 2.5 µM.
